Results: patent US20220111094A1, “PATHOGEN DECONTAMINATION OF PERSONAL PROTECTIVE EQUIPMENT (PPE), FACE FILTERING R[…] (FFR) AND SINGLE USE MEDICAL DEVICES (SUD)” (priority 2020, published 2022)

Columns and labels:
Assay type in all cases: cell-based
[1] = system: HIV-1; experiment: SuperFluids CFI decontamination of medical devices (MDV experiments), residual virus by TCID50; conditions: medical device components such as N95 masks
Protocol: Virus was eluted from control (black bars) and treated (white bars) beads by incubating them with 1 ml of growth media for 30 minutes at room temperature. The amount of HIV p24 in the eluate was measured in an ELISA.
The decontamination device prototype can be run in two modes: dynamic and static. In the static mode, virus-coated N95 face masks and other PPEs were placed in the CFI™ chamber and contacted with the SuperFluids™ for a specific amount of time at a specified pressure and temperature. The CFI™ chamber is be then rapidly exhausted into the expansion chamber. In the dynamic mode, SuperFluids™ is continuously flowed over the virus-coated glass beads at a rate of 20 mL/min, and slowly exhausted at the end of the experiment.

[2] = system: EMC; experiment: CFI virus inactivation of EMC in a FBS matrix; conditions: 50° C., 3,000 psig, previous data
Protocol: Since Freon-22 use and production may be adversely impacted by future environmental concerns, we evaluated alternate refrigerants. Per the listing of thermodynamic properties in Table 1, Freon-23 (trifluoromethane) appears to be an excellent CFI™ candidate because: (i) it is non-chlorinated (the chlorine component of chlorofluorocarbons is thought to be responsible for their negative impact on the ozone layer): (ii) it has a low critical temperature of 25.9° C. (allows operation close to critical conditions while minimizing thermal denaturation of heat sensitive materials); and (iii) it has a relatively large dipole moment of 1.6 Debye (a large potential of solubilizing polar lipids and fats). From a comparison of previous data on the CFI™ virus inactivation of EMC in a FBS matrix, Freon-23 appears to be the best alternate to Freon-22. On the average, Freon-23 inactivated ˜3 logs vs. ˜6 logs of EMC at similar conditions of temperature (50° C.) and pressure (3,000 psig).

[3] = system: murine leukemia virus (MuLV); experiment: CFI inactivation of murine leukemia virus at conditions of almost identical density; conditions: 1,000 psig and 10° C., 2,000 psig and 22° C. and 4,000 psig and 40° C.
Protocol: Temperature. In preliminary studies, all experiments were conducted at or around room temperature in order to maximize the […] of the time and temperature control. Under these conditions, most of the CFI experiments were conducted at sub-critical conditions that may not be optimal for virus inactivation. Temperature will have an impact on both the thermodynamic properties of the SuperFluids™, the configurational structure of the virus, and the integrity of the PPEs and SUDs. Temperature with pressure defines the density of SuperFluids™, and their solvation capacities and expansion factors; the former impacts viral kill by a phospholipid solubilization mechanism and the latter by an explosive decompression mechanism. […] CFI™ technology thus favors lower temperatures, which are better for material integrity. Lowering the temperature often requires the lowering of pressure because density is directly (but not linearly) proportional to pressure and inversely proportional to temperature.

Structure (SMILES)	logs of EMC inactivated (on the average) [2]	other results
O=C=O [Carbon dioxide]	–	virus inactivation of HIV viruses associated with medical device components [1]: quite effective
FC(F)Cl [Freon-22, chlorodifluoromethane]	~6 logs	–
FC(F)F [Freon-23, trifluoromethane]	~3 logs	–
[N-]=[N+]=O [N20, Nitrous Oxide]	–	inactivation of MuLV [3]: equally effective
